IC50 data for 28 compounds are collected here from patent publication US20230278981A1, “DICHLOROPHENOL HSD17B13 INHIBITORS AND USES THEREOF” (INIPHARM, INC., priority 2020, published 2023).

This assay addresses HSD17B13 (Homo sapiens (Human), UniProt Q7Z5P4). Kind of assay: LC/MS estrone detection assay: conversion of estradiol to estrone by HSD17B13. It counts as biochemical. The settings on record: 4 μM estradiol, 6 mM NAD+, 30 nM HSD17B13 enzyme (E. coli expressed His-tagged), 2 hours at 26.5° C. An outline of the steps: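 His-tagged E. coli-expressed HSD17B13 (30 nM) with 4 μM estradiol and 6 mM NAD+ in 1 M potassium phosphate pH 7.4, 0.5% DMSO, 2 h at 26.5° C. Estrone and estradiol quantified by LC-MS/MS after MeCN quench with D4-estrone internal standard; activity as % of uninhibited enzyme, IC50 by four-parameter fit, duplicates.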

Where only a bound is given, the exact number is not on record here.

Chain of HSD17B13 (Q7Z5P4 20-300): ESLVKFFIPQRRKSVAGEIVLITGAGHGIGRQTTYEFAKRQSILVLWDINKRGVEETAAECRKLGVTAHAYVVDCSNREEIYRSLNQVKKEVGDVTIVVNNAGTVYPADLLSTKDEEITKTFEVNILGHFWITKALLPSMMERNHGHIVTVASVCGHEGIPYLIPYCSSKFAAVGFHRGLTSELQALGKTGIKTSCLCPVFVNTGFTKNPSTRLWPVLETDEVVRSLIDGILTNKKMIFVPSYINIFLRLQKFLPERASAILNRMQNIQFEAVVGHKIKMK

In the case of `Cc1ccc(NC(=O)c2cc(Cl)c(O)c(Cl)n2)c2c(=O)n(Cc3cccnc3C(F)(F)F)c(C)nc12` [Example 147, 4,6-dichloro-N-(2,8-dimethyl-4-oxo-3-((2-(trifluoromethyl)pyridin-3-yl)methyl)-3,4-dihydroquinazolin-5-yl)-5-hydroxypicolinamide], the IC50 is 100 to 500 nM.

`O=C(Nc1cccc2ncn(Cc3ncccc3Cl)c(=O)c12)c1cc(Cl)c(O)c(Cl)n1` [Example 148, 4,6-dichloro-N-(3-((3-chloropyridin-2-yl)methyl)-4-oxo-3,4-dihydroquinazolin-5-yl)-5-hydroxypicolinamide] came in with an IC50 of 100 to 500 nM.

For the compound `Cc1ccc(NC(=O)c2cc(Cl)c(O)c(Cl)c2)c2c(=O)n(Cc3ccccc3OC(F)(F)F)c(C(F)F)nc12` [Example 149, 3,5-dichloro-N-(2-(difluoromethyl)-8-methyl-4-oxo-3-(2-(trifluoromethoxy)benzyl)-3,4-dihydroquinazolin-5-yl)-4-hydroxybenzamide], the IC50 was at most 100 nM.

Compound `Cc1nc2c(F)ccc(NC(=O)c3cc(Cl)c(O)c(Cl)n3)c2c(=O)n1Cc1ccccc1OC(F)(F)F` [Example 150, 4,6-dichloro-N-(8-fluoro-2-methyl-4-oxo-3-(2-(trifluoromethoxy)benzyl)-3,4-dihydroquinazolin-5-yl)-5-hydroxypicolinamide] displayed an IC50 of at most 100 nM.

`Cc1ccc(NC(=O)c2cc(Cl)c(O)c(Cl)c2)c2c(=O)n(Cc3ccccc3C(F)(F)F)c(C)nc12` [Example 151, 3,5-dichloro-N-(2,8-dimethyl-4-oxo-3-(2-(trifluoromethyl)benzyl)-3,4-dihydroquinazolin-5-yl)-4-hydroxybenzamide] yielded an IC50 of at most 100 nM.

Turning to `Cc1ccc(NC(=O)c2cc(Cl)c(O)c(Cl)c2)c2c(=O)n(Cc3ccccc3OC(F)(F)F)c(CF)nc12` [Example 152, 3,5-dichloro-N-(2-(fluoromethyl)-8-methyl-4-oxo-3-(2-(trifluoromethoxy)benzyl)-3,4-dihydroquinazolin-5-yl)-4-hydroxybenzamide], the IC50 lay in the range of 500 to 1000 nM.

On to `Cc1ccc(NC(=O)c2cc(Cl)c(O)c(Cl)n2)c2c(=O)n(Cc3ncccc3C(F)(F)F)c(C)nc12` [Example 153, 4,6-dichloro-N-(2,8-dimethyl-4-oxo-3-((3-(trifluoromethyl)pyridin-2-yl)methyl)-3,4-dihydroquinazolin-5-yl)-5-hydroxypicolinamide], for which the IC50 is 100 to 500 nM.

In the case of `Cc1nc2c(F)ccc(NC(=O)c3cc(Cl)c(O)c(Cl)c3)c2c(=O)n1Cc1ncccc1C(F)(F)F` [Example 154, 3,5-dichloro-N-(8-fluoro-2-methyl-4-oxo-3-((3-(trifluoromethyl)pyridin-2-yl)methyl)-3,4-dihydroquinazolin-5-yl)-4-hydroxybenzamide], the IC50 is at most 100 nM.

`Cc1nc2c(F)ccc(NC(=O)c3cc(Cl)c(O)c(Cl)n3)c2c(=O)n1Cc1ncccc1C(F)(F)F` [Example 155, 4,6-dichloro-N-(8-fluoro-2-methyl-4-oxo-3-((3-(trifluoromethyl)pyridin-2-yl)methyl)-3,4-dihydroquinazolin-5-yl)-5-hydroxypicolinamide] displayed an IC50 of 100 to 500 nM.

`Cc1nc2c(Cl)ccc(NC(=O)c3cc(Cl)c(O)c(Cl)c3)c2c(=O)n1Cc1ccccc1C(F)(F)F` [Example 156, 3,5-dichloro-N-(8-chloro-2-methyl-4-oxo-3-(2-(trifluoromethyl)benzyl)-3,4-dihydroquinazolin-5-yl)-4-hydroxybenzamide]: the IC50 was at most 100 nM.

Consider `Cc1nc2c(F)ccc(NC(=O)c3cc(Cl)c(O)c(Cl)c3)c2c(=O)n1C(C)c1ccccc1OC(F)(F)F` (stereo not shown) [Example 157, 3,5-dichloro-N-(8-fluoro-2-methyl-4-oxo-3-(1-(2-(trifluoromethoxy)phenyl)ethyl)-3,4-dihydroquinazolin-5-yl)-4-hydroxybenzamide], for which the IC50 was 100 to 500 nM.

With `Cc1nc2c(F)ccc(NC(=O)c3cc(Cl)c(O)c(Cl)c3)c2c(=O)n1Cc1ccccc1C(F)(F)F` [Example 158, 3,5-dichloro-N-(8-fluoro-2-methyl-4-oxo-3-(2-(trifluoromethyl)benzyl)-3,4-dihydroquinazolin-5-yl)-4-hydroxybenzamide], the IC50 is at most 100 nM.

Consider `Cc1nc2c(F)ccc(NC(=O)c3cc(Cl)c(O)c(Cl)n3)c2c(=O)n1Cc1ccccc1C(F)(F)F` [Example 159, 4,6-dichloro-N-(8-fluoro-2-methyl-4-oxo-3-(2-(trifluoromethyl)benzyl)-3,4-dihydroquinazolin-5-yl)-5-hydroxypicolinamide], for which the IC50 lay within 100 to 500 nM.

On to `Cc1ccc(NC(=O)c2cc(Cl)c(O)c(Cl)n2)c2c(=O)n(Cc3ccccc3OC(F)(F)F)c(C(F)F)nc12` [Example 160, 4,6-dichloro-N-(2-(difluoromethyl)-8-methyl-4-oxo-3-(2-(trifluoromethoxy)benzyl)-3,4-dihydroquinazolin-5-yl)-5-hydroxypicolinamide], for which the IC50 is at most 100 nM.

Regarding `Cc1ccc(NC(=O)c2cc(Cl)c(O)c(Cl)n2)c2c(=O)n(Cc3nn(C)c4ccccc34)c(C)nc12` [Example 162, 4,6-dichloro-N-(2,8-dimethyl-3-((1-methyl-1H-indazol-3-yl)methyl)-4-oxo-3,4-dihydroquinazolin-5-yl)-5-hydroxypicolinamide], the IC50 fell in the range of 100 to 500 nM.

In the case of `Cc1ccc(NC(=O)c2cc(Cl)c(O)c(Cl)n2)c2c(=O)n(Cc3ccccc3C(F)(F)F)c(C)nc12` [Example 163, 4,6-dichloro-N-(2,8-dimethyl-4-oxo-3-(2-(trifluoromethyl)benzyl)-3,4-dihydroquinazolin-5-yl)-5-hydroxypicolinamide], the IC50 fell in the range of 100 to 500 nM.

For `Cc1ccc(NC(=O)c2cc(Cl)c(O)c(Cl)c2)c2c(=O)n(Cc3ncccc3C(F)(F)F)c(C(F)F)nc12` [Example 164, 3,5-dichloro-N-(2-(difluoromethyl)-8-methyl-4-oxo-3-((3-(trifluoromethyl)pyridin-2-yl)methyl)-3,4-dihydroquinazolin-5-yl)-4-hydroxybenzamide], the IC50 fell in the range of 100 to 500 nM.

`Cc1nc2c(Cl)ccc(NC(=O)c3cc(Cl)c(O)c(Cl)n3)c2c(=O)n1Cc1ncccc1C(F)(F)F` [Example 165, 4,6-dichloro-N-(8-chloro-2-methyl-4-oxo-3-((3-(trifluoromethyl)pyridin-2-yl)methyl)-3,4-dihydroquinazolin-5-yl)-5-hydroxypicolinamide] came in with an IC50 of 100 to 500 nM.

Turning to `Cc1nc2c(Cl)ccc(NC(=O)c3cc(Cl)c(O)c(Cl)c3)c2c(=O)n1Cc1ncccc1C(F)(F)F` [Example 166, 3,5-dichloro-N-(8-chloro-2-methyl-4-oxo-3-((3-(trifluoromethyl)pyridin-2-yl)methyl)-3,4-dihydrjoquinazolin-5-yl)-4-hydroxybenzamide], the IC50 lay within 100 to 500 nM.

`Cc1ccc(NC(=O)c2cc(Cl)c(O)c(Cl)c2)c2c(=O)n(Cc3ccccc3C(F)(F)F)c(C(F)F)nc12` [Example 167, 3,5-dichloro-N-(2-(difluoromethyl)-8-methyl-4-oxo-3-(2-(trifluoromethyl)benzyl)-3,4-dihydroquinazolin-5-yl)-4-hydroxybenzamide] returned an IC50 of at most 100 nM.

With `Cc1nc2c(F)ccc(NC(=O)c3cc(Cl)c(O)c(Cl)c3)c2c(=O)n1Cc1ccccc1OC(F)(F)F` [Example 168, 3,5-dichloro-N-(8-fluoro-2-methyl-4-oxo-3-(2-(trifluoromethoxy)benzyl)-3,4-dihydroquinazolin-5-yl)-4-hydroxybenzamide], the IC50 is at most 100 nM.

`[2H]C([2H])([2H])c1nc2c(C)ccc(NC(=O)c3cc(Cl)c(O)c(Cl)c3)c2c(=O)n1Cc1ccccc1OC(F)(F)F` [Example 169, 3,5-dichloro-4-hydroxy-N-(8-methyl-2-(methyl-d3)-4-oxo-3-(2-(trifluoromethoxy)benzyl)-3,4-dihydroquinazolin-5-yl)benzamide] registered an IC50 of at most 100 nM.

For `Cc1nc2c(Cl)ccc(NC(=O)c3cc(Cl)c(O)c(Cl)n3)c2c(=O)n1Cc1ccccc1C(F)(F)F` [Example 170, 4,6-dichloro-N-(8-chloro-2-methyl-4-oxo-3-(2-(trifluoromethyl)benzyl)-3,4-dihydroquinazolin-5-yl)-5-hydroxypicolinamide], the IC50 was in the range of 100 to 500 nM.

`[2H]C([2H])([2H])c1nc2c(F)ccc(NC(=O)c3cc(Cl)c(O)c(Cl)c3)c2c(=O)n1Cc1ccccc1C(F)(F)F` [Example 171, 3,5-dichloro-N-(8-fluoro-2-(methyl-d3)-4-oxo-3-(2-(trifluoromethyl)benzyl)-3,4-dihydroquinazolin-5-yl)-4-hydroxybenzamide] displayed an IC50 of 100 to 500 nM.

For the compound `Cc1ccc(NC(=O)c2cc(Cl)c(O)c(Cl)c2)c2c(=O)n(Cc3ncccc3Cl)c(C)nc12` [Example 172, 3,5-dichloro-N-(3-((3-chloropyridin-2-yl)methyl)-2,8-dimethyl-4-oxo-3,4-dihydroquinazolin-5-yl)-4-hydroxybenzamide], the IC50 was 100 to 500 nM.

As for `Cc1nc2c(F)ccc(NC(=O)c3cc(Cl)c(O)c(Cl)c3)c2c(=O)n1[C@@H](C)c1ccccc1OC(F)(F)F` [Example 173, (S)-3,5-dichloro-N-(8-fluoro-2-methyl-4-oxo-3-(1-(2-(trifluoromethoxy)phenyl)ethyl)-3,4-dihydroquinazolin-5-yl)-4-hydroxybenzamide], the IC50 was in the range of 100 to 500 nM.

`Cc1nc2c(F)ccc(NC(=O)c3cc(Cl)c(O)c(Cl)c3)c2c(=O)n1[C@H](C)c1ccccc1OC(F)(F)F` [Example 174, (R)-3,5-dichloro-N-(8-fluoro-2-methyl-4-oxo-3-(1-(2-(trifluoromethoxy)phenyl)ethyl)-3,4-dihydroquinazolin-5-yl)-4-hydroxybenzamide] had an IC50 of 100 to 500 nM.

In turn, `[2H]C([2H])([2H])c1nc2c(C)ccc(NC(=O)c3cc(Cl)c(O)c(Cl)n3)c2c(=O)n1Cc1ccccc1OC(F)(F)F` [Example 176, 4,6-dichloro-5-hydroxy-N-(8-methyl-2-(methyl-d3)-4-oxo-3-(2-(trifluoromethoxy)benzyl)-3,4-dihydroquinazolin-5-yl)picolinamide] displayed an IC50 of at most 100 nM.

By IC50 is commonly meant the concentration at which inhibition is half-maximal. The low end stands for greater potency, the high end for weaker potency.
